{"source": "patent US20240108590A1", "about": "“MAINTENANCE OF PROGRAMMED CHRONIC LIVER INJURY OF FAH GENE-DEFICIENT ANIMALS AND APPLICATION THEREOF IN PREPARATION OF HETEROLOGOUS LIVER MODELS” (Jiangsu University, priority 2020, published 2024)", "key": {"[1]": {"test_system": "UGT2B7", "experiment": "UGT2B7 metabolism test in vivo", "design": "species or system rat", "conditions": "rats with liver humanization vs control group, after oral AZT", "procedure": "Liver humanized and […] FRG rats were orally administered 15 mg/kg zidovudine (Wako), and peripheral blood was collected after 0, 0.5, 1, 2, 4 and 8 hours. After 30 μl of plasma was diluted 2 fold with PBS, the contents of substrates and metabolites were detected by LC-MS/MS (Agilent 1200 HPLC and ABI 4000 mass-spectrometer)."}, "[2]": {"test_system": "UGT2B7", "conditions": "in rats; cited from earlier work"}, "[3]": {"target": "T1, UGT2B7 (Homo sapiens, UniProt P16662)", "T1 sequence (P16662 24-529)": "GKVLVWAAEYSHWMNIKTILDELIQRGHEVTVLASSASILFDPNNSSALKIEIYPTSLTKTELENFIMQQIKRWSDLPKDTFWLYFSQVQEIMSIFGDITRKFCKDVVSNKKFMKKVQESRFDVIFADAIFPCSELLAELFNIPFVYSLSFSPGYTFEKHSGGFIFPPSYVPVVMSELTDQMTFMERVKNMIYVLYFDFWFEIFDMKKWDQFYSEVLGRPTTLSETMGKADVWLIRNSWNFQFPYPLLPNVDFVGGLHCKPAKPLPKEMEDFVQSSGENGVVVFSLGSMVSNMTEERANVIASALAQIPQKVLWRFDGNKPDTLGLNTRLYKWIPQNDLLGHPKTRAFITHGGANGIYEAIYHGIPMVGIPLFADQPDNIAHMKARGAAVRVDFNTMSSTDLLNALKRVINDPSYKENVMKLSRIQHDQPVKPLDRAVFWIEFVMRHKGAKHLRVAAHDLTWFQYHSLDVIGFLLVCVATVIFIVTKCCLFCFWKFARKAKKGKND", "conditions": "in human; cited from earlier work"}, "[4]": {"test_system": "humanized livers", "experiment": "Detection of humanized liver tumorigenesis (liver/bodyweight ratio, histology, AFP)", "conditions": "NTBC^P, 7 months after PHH transplantation", "protocol": "Under the programmed NTBC controlling scheme, NTBC^P, (7+4: 7 days of 4% NTBC+4 days of 100% NTBC cycle; and Retrorsine pretreatment) mentioned above, humanized livers were obtained and liver/bodyweight ratios were calculated 7 months after transplantation of PHH in FRG rats."}, "[5]": {"test_system": "primary human hepatocytes (PHH)", "experiment": "Repopulation rate of human hepatocytes in FRG rat livers (hNuclei immunostaining)", "format": "in vivo", "conditions": "cyclic NTBC withdrawal/administration based on stepped withdrawal or body weight change, Fah-deficient rats, preliminary tests", "procedure": "(§1) 12. Primary Hepatocyte Transplantation and Programmed NTBC Circulation • (1) Preparation before transplantation: Female FRG rats aged 7-8 weeks were intraperitoneally injected with 30 mg/kg Retrorsine 2 weeks before transplantation, and the concentration of NTBC in daily water was reduced from the normal maintenance concentration (5˜8 mg/L) to low concentration (0.2 mg/L) 1 week before transplantation. When the programmed NTBC cycle began, daily NTBC water was provided according to the method of 0.2 mg/L×7 days+5 mg/L×4 days (one cycle period of 11 days in total).\nBy immunostaining of the human-specific marker hNuclei, the repopulation rates of humanized rat livers can be calculated."}, "[6]": {"test_system": "Fah−/−Rag2−/−IL2rg−/− rats (FRG rats)", "experiment": "Survival of FRG rats under NTBC supply / programmed NTBC controlling", "format": "in vivo, rat", "procedure": "Fah^−/−Rag2^−/−IL2rg^−/− rats (FRG rats) were housed in the Experimental Animal Center of Jiangsu University.\nIn the past feeding, FRG rats were daily supplied with 5-8 mg/L. In the present disclosure, the lowest dose of 5 mg/L NTBC was set as 100% NTBC; According to the weight (250-300 g) and the amount of water (25-50 ml/day) of rats, we can get: • 4% NTBC: equivalent to an average of 0.03 mg/kg/day; • 100% NTBC: equivalent to an average of 0.75 mg/kg/day. • (2) The transplantation was performed under an anesthesia machine using isoflurane. The rat was fixed with its abdomen facing upward, and cleaned and disinfected with iodine and alcohol after dehairing. • (3) By cutting the epidermis and muscle layers, the hepatic portal vein was found. 2×10^6 human primary hepatocytes (resuspended in 800 μl DMEM+10% FBS) were slowly injected with a 26G needle. After completing the injection and paused for a few seconds, the needle was then pulled out, with the needle port quickly pressed with a sterile cotton swab. • (4) After pressing for about 1 minute, with no blood effusion be observed, the muscle and epidermis were sutured and the wound was disinfected with alcohol cotton.\nThe optimal NTBC maintenance concentration was determined by comparing the survival rate of rats at different NTBC concentrations (0%, 1%, 4%, 10%, 100%).\nDue to a long period of the humanization process and in order to further improve the long-term survival rate of rats under liver injury, the inventors designed a series of NTBC dosage regimens, which are called Programmed NTBC controlling scheme with a fixed cycle period (Programmed NTBC controlling, NTBC^P), including 5, 7 and 9 days of maintenance in 4% NTBC conditions, respectively, and 4 days of 100% NTBC recovery after that to alleviate accumulated liver injury (FIG. 2C)."}, "[7]": {"test_system": "primary human hepatocytes (PHH)", "experiment": "Measurement of human albumin secretion in serum of PHH-transplanted rats (ELISA)", "format": "in vivo, rat", "procedure": "100 μl of rat peripheral blood was collected through the tail vein, and after coagulation at room temperature, centrifuged at 400-g for 10 minutes, with the supernatant collected to obtain serum. The secretion level of human albumin was tested according to the instructions of the Human Albumin ELISA Quantitation Set kit. Serum was diluted 10-100000 times according to the actual concentration, so that the calculated value falls within the linear range of the standard curve to obtain accurate values.\nas §1"}, "[8]": {"test_system": "rat livers", "experiment": "Sirius red staining, degree of liver fibrosis", "format": "in vivo", "conditions": "programmed NTBC 7+4 compared with 5+4"}, "[9]": {"test_system": "Afp", "experiment": "Quantitative qPCR of rat Afp gene in liver", "format": "in vivo", "conditions": "long-term programmed NTBC controlling (5+4 and 7+4)", "procedure": "1 μg RNA was reverse-transcribed into cDNA with Revert Aid RT kit according to manufacturer's instructions. According to the instructions of THUNDERBIRD SYBR qPCR Mix kit, cDNA was amplified and quantitatively analyzed on a quantitative PCR machine. Relative expression levels of target genes were based on ACTB as an internal reference. All data were repeated at least twice."}, "[10]": {"test_system": "hALB-positive hepatocytes", "experiment": "Ki67 and hALB counterstaining of humanized livers", "format": "in vivo, rat", "conditions": "NTBC^P, 7 months after transplantation", "procedure": "8. Immunofluorescence Staining • (1) Frozen sections (7 μm) were fixed in 4% PFA at room temperature for 10 minutes, or in methanol:acetone (1:1) at −30° C. for 30 minutes. • (2) Wash three times with 0.1% tween-PBS for 5 minutes each time. • (3) 10% goat or donkey serum was used for blocking for 60 minutes at room temperature. • (4) The primary antibody was used for incubation overnight at 4° C. • (5) Wash three times with 0.1% tween-PBS for 5 minutes each time. • (6) The secondary antibody conjugated with fluorescein was used for incubation at room temperature for 60 minutes. • (7) Wash three times with PBS for 5 minutes each time. • (8) DAPI was added and the sections were mounted by mounting medium and preserved."}, "[11]": {"test_system": "FRG rats", "experiment": "Liver function test (serum ALT and AST)", "format": "in vivo, rat", "procedure": "The content of alanine aminotransferase (ALT) and aspartate aminotransferase (AST) in rat serum was measured according to the instructions of biochemical analyzer FUJI DRI-CHEM 7000V (Fujifilm. Japan)."}, "[12]": {"test_system": "rat livers", "experiment": "Ki67 staining of rat livers with or without RS pretreatment", "format": "in vivo", "conditions": "RS pretreatment vs none, after 2 months of programmed NTBC controlling", "procedure": "7. Immunohistochemistry • (1) The steps of dewaxing and rehydration are the same as above. • (2) Draw a circle around the sample with an ImmunoPen, drop a drop of 3% H2O2 for 15 minutes at room temperature for blocking endogenous peroxidase. • (3) Wash twice with PBS for 5 minutes each time. • (4) The blocking was carried with 1:20 Normal horse serum (dissolved in 1% BSA-PBS), incubated at room temperature for 20 minutes and washed for 3 times with PBS. • (5) The primary antibody was added, then the slices were put in a humid box, sealed and kept overnight at 4 degrees. • (6) Wash three times with PBS for 5 minutes each time. • (7) Secondary antibody was added and incubated at room temperature for 30 minutes. Wash three times with PBS for 5 minutes each time. • (8) AB solution in ABC kit (1:100 dilution of solution A and B) was added and incubated at room temperature for 30 minutes. Wash three times with PBS for 5 minutes each time. • (9) DAB coloration was carried and the time for coloration was adjusted according to different antibodies. • (10) Hematoxylin counterstaining for 20 minutes. Rinse with tap water for half an hour. • (11) Gradient dehydration: 50% ethanol, 70% ethanol, 80% ethanol, 90% ethanol, 100% ethanol, each for 2 minutes. • (12) After 15-30 minutes of xylene, sections were sealed with neutral resin and saved. […]"}}, "data": [{"compound": "Cc1cn([C@H]2C[C@H](N=[N+]=[N-])[C@@H](CO)O2)c(=O)[nH]c1=O", "note": "[AZT, zidovudine]", "values": [{"measurement": "AZT-5′-glucuronide concentration", "setting": "[1]", "value": "significantly higher"}, {"measurement": "metabolic conversion rate of AZT to AZT-5′-glucuronide", "setting": "[2]", "value": 10, "unit": "%"}, {"measurement": "AZT metabolized to AZT-5′-glucuronide", "setting": "[3]", "value": 75, "unit": "%"}]}, {"compound": "O=C1CCCC(=O)C1C(=O)c1ccc(C(F)(F)F)cc1[N+](=O)[O-]", "note": "[NTBC, 2-(2-nitro-4-trifluoromethylbenzoyl)-1.3 cyclohexanedione]", "values": [{"measurement": "AFP gene and protein levels", "setting": "[4]", "value": "no abnormal up-regulation"}, {"measurement": "tumor formation (histology)", "setting": "[4]", "value": "no tumor formation"}, {"measurement": "liver/bodyweight ratio", "setting": "[4]; vs nontransplanted controls", "value": "not significantly increased"}, {"measurement": "proportion of human hepatocyte repopulation", "setting": "[5]", "value": "less than 10%"}, {"measurement": "median survival time", "setting": "[6]; NTBC concentration 4% of the maintenance dose (5 mg/L)", "value": 22, "unit": "days"}, {"measurement": "rats surviving for at least 20 weeks", "setting": "[6]; PHH-transplanted FRG rats, NTBC^P (7+4) with Retrorsine pretreatment", "value": "6/7"}, {"measurement": "healthy survival of FRG rats", "setting": "[6]; maintenance of 100% NTBC (5 mg/L in daily water)", "value": "at least 1.5 years"}, {"measurement": "human albumin secretion level, mean", "setting": "[7]; NTBC^P (7+4) with Retrorsine pretreatment, 7 months after PHH transplantation", "value": "1.7 ± 0.3", "unit": "mg/mL"}, {"measurement": "degree of liver fibrosis", "setting": "[8]", "value": "more significant"}, {"measurement": "expression of rat liver oncogene Afp", "setting": "[9]", "value": "did not lead to abnormal upregulation"}, {"measurement": "proportion of Ki67-positive cells in hALB-positive hepatocytes", "setting": "[10]", "value": "more than 10%"}, {"measurement": "levels of ALT and AST", "setting": "[11]; 4% NTBC compared with 10% NTBC", "value": "higher levels of ALT and AST"}, {"measurement": "levels of ALT and AST", "setting": "[11]; programmed NTBC 7+4 compared with 5+4", "value": "significantly higher"}]}, {"compound": "Retrorsine", "values": [{"measurement": "human albumin secretion level", "setting": "[7]; RS pretreatment vs none, within 4 weeks after PHH transplantation, NTBC 7+4", "value": "increased significantly"}, {"measurement": "human albumin secretion level", "setting": "[7]; Retrorsine combined with partial hepatectomy, before development of NTBC^P scheme", "value": 90, "unit": "µg/mL"}, {"measurement": "proportion of Ki67 positive cells in rat livers", "setting": "[12]", "value": "significantly lower"}]}]}
